Experimental data published in patent publication EP4745242A1, “NUCLEIC ACID VECTOR, NUCLEIC ACID DRUG, PREPARATION METHOD THEREFOR, AND USE THEREOF” (Bai Yao Zhi Da (Beijing) Nanobio Technology Co., Ltd., priority 2023, dated 2025).

Assay: Example 41: body weight and clinical observations
Format: in vivo, BALB/cCrSlcNifdc mice
Details: for Individual animal body weight: single mouse per group
Method: • a) General clinical observations: The clinical condition of mice was observed three times per week during the study, including assessment of tumor nodule ulceration, general appearance/behavior, coat condition, and food intake. • b) Body weight: Mouse body weight was recorded three times per week. • c) Tumor volume: Tumor volume was measured three times per week using vernier calipers. The longest diameter (length) and the perpendicular short diameter (width) were measured, and tumor volume was calculated as: Volume = 0.5 × length × (short diameter)^2. […] The tumor-weight inhibition rate (IRTW, %) was calculated, taking IRTW% > 60% as a reference indicator of efficacy. The calculation is as follows: IRTW(%) = (Wvehicle control−Wtreatment)/Wvehicle control × 100, [formula] where W denotes tumor weight.

## COc1cccc2c1C(=O)c1c(O)c3c(c(O)c1C2=O)C[C@@](O)(C(=O)CO)C[C@@H]3O[C@H]1C[C@H](N)[C@@H](O)[C@H](C)O1 [F, epirubicin]
One animal per group, D26, 26 days after tumor cell injection, in g (unit assumed)
  Animal body weight, D26: 26.81
One animal per group, before administration to D26
  Change in body weight (g): +6.39 g
One animal per group, tail-vein injection once weekly, total 2 administrations, before administration
  Animal body weight, Before administration: 20.42
DAY 12, in g (unit assumed)
  Individual animal body weight: 20.42
DAY 14, in g (unit assumed)
  Individual animal body weight: 22.15
DAY 17, in g (unit assumed)
  Individual animal body weight: 23.68
DAY 19, in g (unit assumed)
  Individual animal body weight: 25.41
DAY 21, in g (unit assumed)
  Individual animal body weight: 26.51
DAY 24, in g (unit assumed)
  Individual animal body weight: 29.19
DAY 26, in g (unit assumed)
  Individual animal body weight: 26.81
